Data as given in patent publication US12252524B2, “GIP/GLP1 co-agonist compounds” (Eli Lilly and Company, priority 2018, dated 2025).
Numbered stars: 1 amine (or outer) side, 2 acyl side, 3 side chain; on linkers, the order of the positions; unused ones are H or OH. Square brackets hold non-standard residues; d marks the D form. Side chains are listed from the residue outwards. Peptide text beside a SMILES is read from it. * marks the point of attachment. C20 diacid = O=C(O)CCCCCCCCCCCCCCCCCCC(=O)*; γGlu = O=C(O)[C@H](CCC(=O)[*:2])N[*:1]; AEEA = NCCOCCOCC(=O)O; Aib = CC(C)(N)C(=O)O

How the values were obtained:
human GIP receptor = biological target: T1, human GIP receptor (Homo sapiens, UniProt P48546); experiment: [125I]-GIP binding (SPA), human GIP receptor; details: read-out: hGIPR Ki, nM (SEM, n)
T1 construct: expressed in transfected cells; crude membranes
T1 sequence (P48546 22-466): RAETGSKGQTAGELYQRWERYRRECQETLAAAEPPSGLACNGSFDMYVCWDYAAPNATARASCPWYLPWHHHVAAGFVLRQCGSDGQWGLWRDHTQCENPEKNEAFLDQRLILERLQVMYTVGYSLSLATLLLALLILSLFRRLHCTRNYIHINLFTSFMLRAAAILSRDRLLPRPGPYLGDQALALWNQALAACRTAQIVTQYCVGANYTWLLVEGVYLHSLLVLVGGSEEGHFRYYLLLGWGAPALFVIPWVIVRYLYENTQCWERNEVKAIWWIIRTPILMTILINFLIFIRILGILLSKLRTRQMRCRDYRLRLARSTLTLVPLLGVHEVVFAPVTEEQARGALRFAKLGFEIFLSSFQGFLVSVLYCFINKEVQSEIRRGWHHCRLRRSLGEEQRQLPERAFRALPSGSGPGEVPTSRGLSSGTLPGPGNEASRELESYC

[1] = biological target: human GLP-1 receptor (GLP-1R) (Homo sapiens, UniProt P43220); experiment: cAMP pharmacological functional assay in presence of casein, hGLP-1R; assay type: cell-based; details: HEK293 cells expressing hGLP-1R, 0.1% Casein, geometric mean; read-out: hGLP1R cAMP Rel EC50 nM (SEM, n)
human Gcg receptor = biological target: T2, human Gcg receptor (Homo sapiens, UniProt P47871); experiment: [125I]-Glucagon binding (SPA), human Gcg receptor; details: read-out: hGLcgR Ki, nM (SEM, n)
T2 construct: expressed in transfected cells; crude membranes
Procedure, shortened: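 Crude membranes from cells expressing the receptor, prepared by hypotonic lysis in 50 mM Tris HCl pH 7.5 with protease inhibitors, homogenization and differential centrifugation, were used in a WGA-bead SPA. Binding buffer: 25 mM HEPES pH 7.4, 2.5 mM CaCl2, 1 mM MgCl2, bacitracin, Tween-20.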

human GLP-1R = human GLP-1R (Homo sapiens, UniProt P43220); experiment: [125I]-GLP-1 binding (SPA), human GLP-1 receptor; parameters: expressed in transfected cells; crude membranes; details: read-out: hGLP1R Ki, (nM) (SEM, n)
Procedure, shortened: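 Crude-membrane binding assay; one membrane prep included 1 mM MgCl2 and 25 units/ml DNAse I during lysis. Assay buffer at pH 7.4 contains 0.1% (w/v) bacitracin and 0.003% (w/v) TWEEN-20. Ki is reported as geometric mean.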

[2] = biological target: T3, gastric inhibitory peptide receptor (GIPR) (Homo sapiens, UniProt P48546); experiment: cAMP pharmacological functional assay in presence of casein, hGIPR; assay type: cell-based; details: HEK293 cells expressing hGIPR, 0.1% Casein, geometric mean; read-out: hGIPR cAMP Rel EC50 nM (SEM, n)
T3 sequence (P48546 22-466): T1 sequence (P48546 22-466)

T2 sequence (P47871 26-477): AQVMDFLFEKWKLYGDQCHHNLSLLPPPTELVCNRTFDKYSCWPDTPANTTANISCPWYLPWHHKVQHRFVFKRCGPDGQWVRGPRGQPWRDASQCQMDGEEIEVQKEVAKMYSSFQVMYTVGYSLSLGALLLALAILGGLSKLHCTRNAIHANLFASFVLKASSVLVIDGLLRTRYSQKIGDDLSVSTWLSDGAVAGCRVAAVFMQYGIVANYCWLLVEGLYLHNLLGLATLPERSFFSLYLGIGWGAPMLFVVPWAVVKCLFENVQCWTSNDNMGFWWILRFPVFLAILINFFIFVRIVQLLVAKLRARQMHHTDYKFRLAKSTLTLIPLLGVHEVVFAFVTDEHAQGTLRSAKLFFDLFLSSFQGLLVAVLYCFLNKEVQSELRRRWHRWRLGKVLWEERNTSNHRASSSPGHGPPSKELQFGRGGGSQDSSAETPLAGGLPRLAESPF
human GLP-1 receptor (GLP-1R), sequence (P43220 24-463): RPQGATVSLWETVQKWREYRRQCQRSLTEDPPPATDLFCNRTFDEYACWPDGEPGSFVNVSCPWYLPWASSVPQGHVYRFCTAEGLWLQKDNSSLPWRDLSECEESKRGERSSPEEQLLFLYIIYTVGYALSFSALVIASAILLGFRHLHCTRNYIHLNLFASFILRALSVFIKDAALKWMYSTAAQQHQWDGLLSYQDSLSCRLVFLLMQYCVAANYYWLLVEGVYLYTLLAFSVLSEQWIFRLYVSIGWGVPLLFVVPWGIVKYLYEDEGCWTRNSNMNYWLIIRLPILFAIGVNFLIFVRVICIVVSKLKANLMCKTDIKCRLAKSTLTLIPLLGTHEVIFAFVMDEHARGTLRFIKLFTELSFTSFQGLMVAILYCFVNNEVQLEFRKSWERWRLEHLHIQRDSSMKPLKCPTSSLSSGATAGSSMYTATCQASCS
human GLP-1R, sequence (P43220 24-463): as above

Row | Structure (SMILES) | Ki (human GIP receptor) [nM] | EC50 [1] [nM] | Ki (human Gcg receptor) [nM] | Ki (human GLP-1R) [nM] | EC50 [2] [nM]
1 | CC[C@H](C)[C@H](NC(=O)[C@H](CC(C)C)NC(=O)[C@H](Cc1ccc(O)cc1)NC(=O)[C@H](CCC(=O)O)NC(=O)[C@@H](NC(=O)[C@H](Cc1ccccc1)NC(=O)[C@H](C)NC(=O)[C@H](C)NC(=O)[C@H](CCC(N)=O)NC(=O)[C@H](C)NC(=O)[C@H](CCCCNC(=O)COCCOCCNC(=O)COCCOCCNC(=O)CC[C@H](NC(=O)CCCCCCCCCCCCCCCCCCC(=O)O)C(=O)O)NC(=O)[C@H](CCCCN)NC(=O)[C@H](CC(=O)O)NC(=O)[C@H](CC(C)C)NC(=O)[C@H](CC(C)C)NC(=O)[C@@H](NC(=O)[C@H](CO)NC(=O)[C@H](Cc1ccc(O)cc1)NC(=O)[C@H](CC(=O)O)NC(=O)[C@H](CO)NC(=O)[C@@H](NC(=O)[C@H](Cc1ccccc1)NC(=O)[C@@H](NC(=O)CNC(=O)[C@H](CCC(=O)O)NC(=O)C(C)(C)NC(=O)[C@@H](N)Cc1ccc(O)cc1)[C@@H](C)O)[C@@H](C)O)[C@@H](C)CC)[C@@H](C)CC)C(=O)N[C@@H](CCC(=O)O)C(=O)NCC(=O)NCC(=O)N1CCC[C@H]1C(=O)N[C@@H](CO)C(=O)N[C@@H](CO)C(=O)NCC(=O)N[C@@H](C)C(=O)N1CCC[C@H]1C(=O)N1CCC[C@H]1C(=O)N1CCC[C@H]1C(=O)N[C@@H](CO)C(N)=O [Example 253] (H-Y[Aib]EGTFTSDYSILLDKK([AEEA-AEEA-γGlu-C20 diacid])AQAAFIEYLIEGGPSSGAPPPS-NH2) | 0.138 | 0.109 | > 912 | 2.57 | 0.219
2 | CC[C@H](C)[C@H](NC(=O)[C@H](CC(C)C)NC(=O)[C@H](Cc1ccc(O)cc1)NC(=O)[C@H](CCC(=O)O)NC(=O)[C@@H](NC(=O)[C@H](Cc1ccccc1)NC(=O)[C@H](C)NC(=O)[C@H](CCC(N)=O)NC(=O)[C@H](CCC(N)=O)NC(=O)[C@H](C)NC(=O)[C@H](CCCCNC(=O)COCCOCCNC(=O)COCCOCCNC(=O)CC[C@H](NC(=O)CCCCCCCCCCCCCCCCCCC(=O)O)C(=O)O)NC(=O)[C@H](CCCCN)NC(=O)[C@H](CC(=O)O)NC(=O)[C@H](CC(C)C)NC(=O)[C@H](CC(C)C)NC(=O)[C@@H](NC(=O)[C@H](CO)NC(=O)[C@H](Cc1ccc(O)cc1)NC(=O)[C@H](CC(=O)O)NC(=O)[C@H](CO)NC(=O)[C@@H](NC(=O)[C@H](Cc1ccccc1)NC(=O)[C@@H](NC(=O)CNC(=O)[C@H](CCC(=O)O)NC(=O)C(C)(C)NC(=O)[C@@H](N)Cc1ccc(O)cc1)[C@@H](C)O)[C@@H](C)O)[C@@H](C)CC)[C@@H](C)CC)C(=O)N[C@@H](CCC(=O)O)C(=O)NCC(=O)NCC(=O)N1CCC[C@H]1C(=O)N[C@@H](CO)C(=O)N[C@@H](CO)C(=O)NCC(=O)N[C@@H](C)C(=O)N1CCC[C@H]1C(=O)N1CCC[C@H]1C(=O)N1CCC[C@H]1C(=O)N[C@@H](CO)C(N)=O [Example 254] (H-Y[Aib]EGTFTSDYSILLDKK([AEEA-AEEA-γGlu-C20 diacid])AQQAFIEYLIEGGPSSGAPPPS-NH2) | 0.108 | 0.0553 | 148 | 2.58 | 0.215
